Results from patent publication US12139487B2, “Compounds and uses thereof” (Foghorn Therapeutics Inc., priority 2022, dated 2024).

How the values were obtained:
[1] = molecular target: T1, BRM (Homo sapiens, UniProt P51531); assay: ATPase catalytic activity assay (ADP-Glo), BRM; assay type: biochemical; conditions: Table 10; for Ratio (BRG1 IC50 (μM) divided by BRM IC50 (μM)): ATPase assay, selectivity BRG1/BRM; for IC50: ATPase catalytic activity assay (ADP-Glo)
T1 construct: made in house; host or cells: High Five insect cells
T1 sequence (P51531 whole entry): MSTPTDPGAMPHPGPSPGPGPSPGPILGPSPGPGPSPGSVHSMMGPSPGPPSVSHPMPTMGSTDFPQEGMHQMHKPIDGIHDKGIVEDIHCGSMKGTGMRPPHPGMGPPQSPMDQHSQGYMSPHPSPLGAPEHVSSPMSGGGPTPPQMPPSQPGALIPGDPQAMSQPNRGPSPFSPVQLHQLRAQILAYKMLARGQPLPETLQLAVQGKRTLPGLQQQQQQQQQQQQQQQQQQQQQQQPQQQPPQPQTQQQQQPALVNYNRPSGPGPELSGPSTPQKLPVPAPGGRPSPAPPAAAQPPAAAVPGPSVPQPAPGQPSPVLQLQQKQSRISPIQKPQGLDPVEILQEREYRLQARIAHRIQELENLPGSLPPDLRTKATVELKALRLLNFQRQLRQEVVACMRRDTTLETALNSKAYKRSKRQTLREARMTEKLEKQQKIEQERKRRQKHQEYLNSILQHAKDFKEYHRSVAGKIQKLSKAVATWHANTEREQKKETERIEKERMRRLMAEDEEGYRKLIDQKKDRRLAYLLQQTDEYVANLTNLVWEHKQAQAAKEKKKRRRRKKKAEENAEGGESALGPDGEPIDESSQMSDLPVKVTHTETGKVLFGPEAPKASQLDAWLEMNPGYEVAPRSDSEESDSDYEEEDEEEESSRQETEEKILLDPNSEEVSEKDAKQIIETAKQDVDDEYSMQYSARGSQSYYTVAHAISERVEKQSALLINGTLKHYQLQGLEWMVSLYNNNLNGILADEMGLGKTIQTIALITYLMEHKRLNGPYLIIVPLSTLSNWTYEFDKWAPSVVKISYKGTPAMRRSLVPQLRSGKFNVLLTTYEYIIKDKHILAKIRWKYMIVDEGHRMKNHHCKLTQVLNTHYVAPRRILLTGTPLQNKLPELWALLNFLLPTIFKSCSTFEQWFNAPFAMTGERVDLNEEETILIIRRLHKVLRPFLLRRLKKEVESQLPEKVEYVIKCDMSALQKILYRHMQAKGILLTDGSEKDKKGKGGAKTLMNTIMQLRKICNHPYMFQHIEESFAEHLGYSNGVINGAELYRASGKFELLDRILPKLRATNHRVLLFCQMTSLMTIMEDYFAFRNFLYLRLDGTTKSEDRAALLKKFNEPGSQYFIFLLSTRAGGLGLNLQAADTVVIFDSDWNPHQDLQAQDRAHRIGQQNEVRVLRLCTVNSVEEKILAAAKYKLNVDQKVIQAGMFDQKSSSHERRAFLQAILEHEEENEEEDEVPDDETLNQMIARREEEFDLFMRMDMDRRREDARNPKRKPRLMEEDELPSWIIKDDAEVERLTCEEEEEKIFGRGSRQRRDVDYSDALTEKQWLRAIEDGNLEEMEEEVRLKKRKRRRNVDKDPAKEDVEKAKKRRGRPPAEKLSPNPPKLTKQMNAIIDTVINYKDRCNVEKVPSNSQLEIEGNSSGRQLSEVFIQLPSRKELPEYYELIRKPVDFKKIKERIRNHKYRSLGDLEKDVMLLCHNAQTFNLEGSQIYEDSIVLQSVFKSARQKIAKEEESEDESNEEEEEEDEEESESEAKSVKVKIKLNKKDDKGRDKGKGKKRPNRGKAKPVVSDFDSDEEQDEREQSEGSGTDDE
In short: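 ADP-Glo luminescence measures ADP produced by BRM ATPase (30 nM) during 1 h at room temperature. ATP is 400 μM, with 20 nM salmon sperm DNA as cofactor. Buffer: 20 mM Tris pH 8, 20 mM MgCl2, 50 mM NaCl, 0.1% Tween-20, 1 mM DTT.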

[2] = molecular target: T2, BRG-1 (Homo sapiens, UniProt P51532); assay: ATPase catalytic activity assay (ADP-Glo), BRG-1; assay type: biochemical; conditions: Table 10, read-out: BRG1 IC50
T2 construct: made in house; host or cells: High Five insect cells
T2 sequence (P51532 whole entry): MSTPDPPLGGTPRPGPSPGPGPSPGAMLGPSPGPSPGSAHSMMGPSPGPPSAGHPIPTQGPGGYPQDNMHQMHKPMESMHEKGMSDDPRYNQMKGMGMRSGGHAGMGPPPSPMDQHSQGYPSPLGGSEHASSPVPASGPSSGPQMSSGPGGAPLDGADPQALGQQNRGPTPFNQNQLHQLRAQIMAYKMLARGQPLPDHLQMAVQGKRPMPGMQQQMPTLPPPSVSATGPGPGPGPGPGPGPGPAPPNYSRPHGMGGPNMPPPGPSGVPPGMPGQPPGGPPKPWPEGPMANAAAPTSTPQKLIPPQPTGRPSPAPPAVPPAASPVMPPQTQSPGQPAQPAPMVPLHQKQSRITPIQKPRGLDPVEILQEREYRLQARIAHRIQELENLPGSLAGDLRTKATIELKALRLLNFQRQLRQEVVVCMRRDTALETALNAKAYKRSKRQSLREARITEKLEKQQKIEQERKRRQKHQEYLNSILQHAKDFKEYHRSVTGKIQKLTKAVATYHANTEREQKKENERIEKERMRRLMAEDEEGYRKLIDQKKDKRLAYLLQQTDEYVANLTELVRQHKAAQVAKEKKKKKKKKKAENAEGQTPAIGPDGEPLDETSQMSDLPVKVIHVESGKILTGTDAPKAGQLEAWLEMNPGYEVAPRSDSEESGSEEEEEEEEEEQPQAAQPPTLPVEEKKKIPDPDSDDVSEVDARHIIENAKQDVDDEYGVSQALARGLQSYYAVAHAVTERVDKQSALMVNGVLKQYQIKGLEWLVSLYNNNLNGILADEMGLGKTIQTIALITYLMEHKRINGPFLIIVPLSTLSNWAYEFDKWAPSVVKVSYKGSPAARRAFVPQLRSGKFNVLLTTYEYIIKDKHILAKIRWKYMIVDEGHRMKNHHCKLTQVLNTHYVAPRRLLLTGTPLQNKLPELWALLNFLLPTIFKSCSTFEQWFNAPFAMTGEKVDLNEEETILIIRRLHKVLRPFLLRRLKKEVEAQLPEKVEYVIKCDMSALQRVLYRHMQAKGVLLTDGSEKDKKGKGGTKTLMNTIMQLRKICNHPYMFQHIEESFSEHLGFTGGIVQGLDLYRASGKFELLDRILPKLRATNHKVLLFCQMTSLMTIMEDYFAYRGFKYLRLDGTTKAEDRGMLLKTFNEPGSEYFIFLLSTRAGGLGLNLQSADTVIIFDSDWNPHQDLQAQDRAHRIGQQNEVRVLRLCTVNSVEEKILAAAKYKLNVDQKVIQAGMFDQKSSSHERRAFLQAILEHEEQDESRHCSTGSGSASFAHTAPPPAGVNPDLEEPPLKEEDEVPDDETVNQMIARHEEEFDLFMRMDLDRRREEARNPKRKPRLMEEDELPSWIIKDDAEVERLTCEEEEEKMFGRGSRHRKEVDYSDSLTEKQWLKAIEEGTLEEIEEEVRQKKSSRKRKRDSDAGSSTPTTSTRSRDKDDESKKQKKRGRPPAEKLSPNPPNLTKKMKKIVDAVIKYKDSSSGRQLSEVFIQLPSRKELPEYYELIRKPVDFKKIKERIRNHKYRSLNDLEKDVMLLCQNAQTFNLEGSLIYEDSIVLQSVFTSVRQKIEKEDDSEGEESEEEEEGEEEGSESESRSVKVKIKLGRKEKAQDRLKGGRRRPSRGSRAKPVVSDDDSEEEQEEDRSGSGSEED
In short: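 Luminescence read-out: ADP formed by BRG-1 ATPase is converted to ATP and detected by luciferase. Residual ATP is first removed with ADP-Glo Reagent for 40 min at RT; detection reagent is then incubated 60 min at RT before reading.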

Row | SMILES | Ratio (BRG1 IC50 (μM) divided by BRM IC50 (μM)) [1] | IC50 [1] | IC50 [2]
1 | O=C(NCc1cc(C#Cc2cccc(OC(F)F)n2)ccn1)c1cc(F)c2c(c1)S(=O)(=O)[C@@H](F)COC2 [Compound 184, (R)—N-((4-((6-(difluoromethoxy)pyridin-2-yl)ethynyl)pyridin-2-yl)methyl)-2,6-difluoro-3,5-dihydro-2H-benzo[e][1,4]oxathiepine-8-carboxamide 1,1-dioxide] | 23.91 | 143 nM | 3420 nM
2 | COc1nc(C(F)F)ccc1-c1ccc2cnc([C@H](C)NC(=O)c3ccc4c(c3)S(=O)(=O)[C@@H](F)CCOC4)cc2n1 [Compound 122] | 10.93 | 4.2 nM | 45.9 nM
3 | C[C@@H]1CN(c2cnc3c(c2)OCCN3c2ccc3cnc(CNC(=O)c4cc(F)c5c(c4)S(=O)(=O)[C@@H](F)CCO5)cc3n2)C[C@@H]1F [Compound 284] | 11.05 | 9.5 nM | 105 nM
4 | O=C(NCc1cc2nc(-c3ccnc(N4CCC4)n3)ccc2cn1)c1cc(F)c2c(c1)S(=O)(=O)[C@@H](F)COC2 [Compound 228] | 14.53 | 7.1 nM | 108 nM
5 | COc1nc([C@@H](C)C(F)F)ccc1-c1ccc2cnc(CNC(=O)c3cc(F)c4c(c3)S(=O)(=O)[C@@H](F)CCO4)cc2n1 [Compound 328] | 29.97 | 24.1 nM | 723 nM
6 | C[C@H]1C[C@H]1c1cnc2c(c1)OCCN2c1ccc2cnc(CNC(=O)c3cc(F)c4c(c3)S(=O)(=O)[C@@H](F)CCO4)cc2n1 [Compound 300] | 11.89 | 9.9 nM | 118 nM
7 | COc1nc(-c2ccc3cnc(CNC(=O)c4cc(F)c5c(c4)S(=O)(=O)[C@@H](F)CCO5)cc3n2)ccc1C(F)F [Compound 143] | 21.43 | 4.7 nM | 98.5 nM
8 | COc1cccc(-c2ccc3cnc(CNC(=O)c4cc(Cl)c5c(c4)S(=O)(=O)[C@@H](F)CCO5)cc3n2)n1 [Compound 322] | 30.39 | 32.2 nM | 1180 nM
9 | CO[C@@H]1C[C@H]1c1cnc2c(c1)OCCN2c1ccc2cnc(CNC(=O)c3cc(F)c4c(c3)S(=O)(=O)[C@@H](F)CCO4)cc2n1 [Compound 152] | 11.35 | 5 nM | 53 nM
10 | O=C(NCc1cc2nc(N3CCCc4ccc(C(F)F)nc43)ccc2cn1)c1cc(Cl)c2c(c1)S(=O)(=O)[C@@H](F)CCO2 [Compound 272] | 23.60 | 8.9 nM | 199 nM
11 | Cc1cc(C(=O)NCc2cc3nc(-c4ccc(OC(F)F)c(C5CC5)n4)ccc3cn2)cc2c1OCC[C@H](F)S2(=O)=O [Compound 324] | 22.15 | 16.1 nM | 357 nM
12 | O=C(NCc1cc2nc(N3CCOc4cc(OC(F)F)cnc43)ccc2cn1)c1cc(F)c2c(c1)S(=O)(=O)[C@@H](F)CCO2 [Compound 180] | 18.29 | 5.7 nM | 104 nM
13 | O=C(NCc1cc2nc(-c3cccc(OC(F)F)n3)ccc2cn1)c1cc(F)c2c(c1)S(=O)(=O)[C@@H](F)COC2 [Compound 205] | 23.40 | 6.1 nM | 128 nM
14 | CO[C@H]1CN(c2cccc(-c3ccc4cnc(CNC(=O)c5cc(F)c6c(c5)S(=O)(=O)[C@@H](F)CCO6)cc4n3)n2)C[C@@H]1F [Compound 97] | 17.66 | 3.4 nM | 65.7 nM
15 | COCc1cnc2c(c1)OCCN2c1ccc2cnc(CNC(=O)c3cc(F)c4c(c3)S(=O)(=O)[C@@H](F)CCO4)cc2n1 [Compound 224] | 15.91 | 7.1 nM | 115 nM
16 | O=C(NCc1cc2nc(-c3cccc(OC(F)F)c3)ccc2cn1)c1cc(F)c2c(c1)S(=O)(=O)[C@@H](F)COC2 [Compound 297, (2R)—N-[[2-[3-(difluoromethoxy)phenyl]-1,6-naphthyridin-7-yl]methyl]-2,6-difluoro-1,1-dioxo-3,5-dihydro-2H-4,1λ6-benzoxathiepine-8-carboxamide] | 29.64 | 9.9 nM | 266 nM
17 | COCCOc1ccnc2c1CCCN2c1ccc2cnc(CNC(=O)c3cc(F)c4c(c3)S(=O)(=O)[C@@H](F)CCO4)cc2n1 [Compound 189] | 16.84 | 5.8 nM | 107 nM
18 | C[C@@H]1CN(c2cccc(-c3ccc4cnc(CNC(=O)c5ccc6c(c5)S(=O)(=O)[C@H](F)CCN6C)cc4n3)n2)C[C@H](C)O1 [Compound 319] | 25.94 | 192 nM | 4990 nM
19 | O=C(NCc1cc2nc(N3CCOc4cc(C56CC(C5)C6)cnc43)ccc2cn1)c1cc(F)c2c(c1)S(=O)(=O)[C@@H](F)COC2 [Compound 146] | 15.71 | 4.8 nM | 72.9 nM
20 | CCn1ccc2c(-c3ccc4cnc(CNC(=O)c5cc(F)c6c(c5)S(=O)(=O)[C@@H](F)CCO6)cc4n3)ccnc21 [Compound 256] | 13.83 | 8.1 nM | 112 nM
21 | O=C(NCc1cc2nc(N3CCOc4cc(N5C[C@H](F)[C@@H](F)C5)cnc43)ccc2cn1)c1cc(F)c2c(c1)S(=O)(=O)[C@@H](F)CCO2 [Compound 138] | 18.95 | 4.7 nM | 88.2 nM
22 | C[C@@H]1CN(c2cccc(-c3ccc4cnc(CNC(=O)c5ccc6c(c5)S(=O)(=O)[C@@H](F)CCN6C)cc4n3)n2)C[C@H](C)O1 [Compound 318] | 8.51 | 12.3 nM | 105 nM
23 | CCOc1cnc2c(c1)OCCN2c1ccc2cnc(CNC(=O)c3cc(F)c4c(c3)S(=O)(=O)[C@@H](F)CCO4)cc2n1 [Compound 247] | 13.39 | 7.8 nM | 98.5 nM
24 | COc1nc(-c2ccc3cnc(CNC(=O)c4cc(Cl)c5c(c4)S(=O)(=O)[C@@H](F)COC5)cc3n2)ccc1C(F)F [Compound 301] | 18.66 | 10 nM | 175 nM
25 | O=C(NCc1cc2nc(N3CCOc4ccc([C@@H]5C[C@H]5C(F)F)nc43)ccc2cn1)c1cc(F)c2c(c1)S(=O)(=O)[C@@H](F)CCO2 [Compound 123] | 12.84 | 4.2 nM | 50.6 nM

The next compounds have a lower IC50 [1] than those just listed; values first:

Row | Ratio (BRG1 IC50 (μM) divided by BRM IC50 (μM)) [1] | IC50 [1] | IC50 [2] | SMILES
26 | 14.31 | 3 nM | 46.7 nM | COc1cc2c(nc1C(F)F)N(c1ccc3cnc(CNC(=O)c4cc(F)c5c(c4)S(=O)(=O)[C@@H](F)CCO5)cc3n1)CCO2 [Compound 81]
27 | 15.80 | 3.2 nM | 51.2 nM | [2H]C1([2H])Oc2c(F)cc(C(=O)NCc3cc4nc(N5CCOc6cc(C7CC7)cnc65)ccc4cn3)cc2S(=O)(=O)[C@]([2H])(F)C1([2H])[2H] [Compound 90]
28 | – | 1.6 nM | 37.9 nM | [2H]C1([2H])OC([2H])([2H])[C@H](F)S(=O)(=O)c2cc(C(=O)NCc3cc4nc(-c5ccc(C(F)F)nc5OC)ccc4cn3)cc(F)c21 [Compound 23]
29 | 13.42 | 2.3 nM | 34.1 nM | O=C(NCc1cc2nc(N3CCOc4cc(N5CCC5)cnc43)ccc2cn1)c1cc(F)c2c(c1)S(=O)(=O)[C@@H](F)COC2 [Compound 48]
30 | 20.00 | 2 nM | 46.4 nM | C[C@@H]1C[C@H]1c1ccc2c(n1)N(c1ccc3cnc(CNC(=O)c4cc(F)c5c(c4)S(=O)(=O)[C@@H](F)COC5)cc3n1)CCO2 [Compound 41]
31 | 23.60 | 2.5 nM | 64.4 nM | O=C(NCc1cc2nc(N3CCOc4ccc(C(F)F)nc43)ccc2cn1)c1cc(F)c2c(c1)S(=O)(=O)[C@@H](F)COC2 [Compound 58]
32 | – | 2 nM | 40.6 nM | COc1nc([C@](C)(F)C(F)F)ccc1-c1ccc2cnc(CNC(=O)c3ccc4c(c3)S(=O)(=O)[C@@H](F)CCOC4)cc2n1 [Compound 43]
33 | 35.69 | 2.5 nM | 124 nM | O=C(NCc1cc2nc(N3CCOc4ccc(C5CC5)nc43)ccc2cn1)c1cc(F)c2c(c1)S(=O)(=O)[C@@H](F)CCO2 [Compound 55]
34 | 13.74 | 1.9 nM | 23.3 nM | COCCOc1ccc2c(c1)N(c1ccc3cnc(CNC(=O)c4cc(F)c5c(c4)S(=O)(=O)[C@@H](F)CCO5)cc3n1)CCO2 [Compound 35]
35 | 18.80 | 0.6 nM | 10.5 nM | COCCn1c(C)cc2c(-c3ccc4cnc(CNC(=O)c5cc(F)c6c(c5)S(=O)(=O)[C@@H](F)CCO6)cc4n3)cccc21 [Compound 2]
36 | 21.08 | 2.6 nM | 48.5 nM | O=C(NCc1cc2nc(N3CCOc4cc(C5CC5)cnc43)ccc2cn1)c1cc(Cl)c2c(c1)S(=O)(=O)[C@@H](F)COC2 [Compound 61]
37 | 14.89 | 1.3 nM | 22.3 nM | O=C(NCc1cc2nc(N3CCOc4cc(C5CC5)cnc43)ccc2cn1)c1cc(F)c2c(c1)S(=O)(=O)[C@@H](F)COC2 [Compound 8]
38 | 23.13 | 2.6 nM | 58.7 nM | O=C(NCc1cc2nc(N3CCOc4ccc(N5CC(F)C5)nc43)ccc2cn1)c1cc(F)c2c(c1)S(=O)(=O)[C@@H](F)COC2 [Compound 63]
